Consider 29 molecules from patent publication US8557796B2, “Substituted 1-oxa-2,8-diaza-spiro [4,5] dec-2-ene derivatives and related treatment methods” (Gruenenthal GmbH, priority 2001, dated 2013).

One experiment addresses T1, NA transporter (Rattus norvegicus, UniProt Q9WTR4).
T1 construct: synaptosomes from rat brain regions were freshly isolated; from tissue; host or cells: P2 synaptosome fraction from hypothalamus of male rat brain
The experiment in a line: Noradrenalin uptake inhibition (NA-uptake) in synaptosomes. The experiment is classed as biochemical. The note with it: rat hypothalamus synaptosomes. An excerpt:
Tests on Noradrenalin Uptake Inhibition (NA-Uptake Inhibition)
In order to be able to carry out these in vitro studies, synaptosomes from rat brain regions were freshly isolated.

For another experiment, the target named is T2, 5HT-uptake (Rattus norvegicus, UniProt P31652).
T2 construct: synaptosomes from rat brain regions were freshly isolated; from tissue; host or cells: P2 synaptosome fraction from rat brain regions
T2 sequence (P31652 whole entry): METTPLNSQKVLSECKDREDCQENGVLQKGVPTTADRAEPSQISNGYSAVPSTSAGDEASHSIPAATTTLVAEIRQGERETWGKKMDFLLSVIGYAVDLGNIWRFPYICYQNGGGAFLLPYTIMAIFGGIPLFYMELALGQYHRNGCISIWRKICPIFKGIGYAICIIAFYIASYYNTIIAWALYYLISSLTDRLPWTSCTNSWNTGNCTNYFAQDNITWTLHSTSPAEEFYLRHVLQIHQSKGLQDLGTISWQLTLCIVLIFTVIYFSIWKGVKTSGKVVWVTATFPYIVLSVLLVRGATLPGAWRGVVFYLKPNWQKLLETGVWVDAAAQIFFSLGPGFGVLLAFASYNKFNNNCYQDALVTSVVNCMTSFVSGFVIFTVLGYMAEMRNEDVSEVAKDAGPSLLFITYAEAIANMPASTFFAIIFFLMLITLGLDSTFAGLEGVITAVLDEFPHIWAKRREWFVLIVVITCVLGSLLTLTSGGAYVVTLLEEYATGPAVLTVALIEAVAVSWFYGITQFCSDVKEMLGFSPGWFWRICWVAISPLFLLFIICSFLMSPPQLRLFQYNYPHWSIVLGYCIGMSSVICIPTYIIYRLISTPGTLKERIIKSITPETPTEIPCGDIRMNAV
The experiment in a line: Serotonin uptake inhibition (5HT uptake) in synaptosomes. The experiment is classed as biochemical. The note with it: rat brain synaptosomes.

Molecules are shown by their SMILES.

In general, inhibition refers to the relative decrease from the control value, in per cent. A lower inhibition goes with little suppression.

T1 sequence (Q9WTR4 1-597): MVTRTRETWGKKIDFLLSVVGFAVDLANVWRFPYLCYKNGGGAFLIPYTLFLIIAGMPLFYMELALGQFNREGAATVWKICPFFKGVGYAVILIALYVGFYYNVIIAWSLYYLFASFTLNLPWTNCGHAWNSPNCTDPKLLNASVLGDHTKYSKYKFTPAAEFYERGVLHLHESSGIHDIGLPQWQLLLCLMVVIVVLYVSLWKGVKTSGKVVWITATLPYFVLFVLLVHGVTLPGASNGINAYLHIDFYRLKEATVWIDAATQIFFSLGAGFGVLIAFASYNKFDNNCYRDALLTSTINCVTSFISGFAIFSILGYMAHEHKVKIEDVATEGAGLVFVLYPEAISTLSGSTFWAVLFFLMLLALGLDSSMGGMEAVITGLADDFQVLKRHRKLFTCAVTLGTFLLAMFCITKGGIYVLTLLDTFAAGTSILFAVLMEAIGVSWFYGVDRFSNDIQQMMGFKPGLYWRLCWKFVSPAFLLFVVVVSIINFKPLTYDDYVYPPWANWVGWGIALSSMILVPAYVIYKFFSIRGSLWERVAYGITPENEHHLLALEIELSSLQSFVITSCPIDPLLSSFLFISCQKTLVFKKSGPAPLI
Excerpt for 5HT-uptake: Tests on Serotonin Uptake (5HT Uptake Inhibition)

On to `O=C(C1=NOC2(CCN(S(=O)(=O)c3cccs3)CC2)C1)N1CCN(C2CCCCCC2)CC1` [Example 3, (4-cycloheptyl-piperazin-l-yl)-[8-(thiophene-2-sulphonyl)-1-oxa-2,8-diaza-spiro [4,5]dec-2-en-3-yl]-methanone], for which the “NA-uptake, 10 μM, % inhibition” value at NA transporter amounted to 59%. Further, the “5HT-uptake, 10 μM, % inhibition” value at 5HT-uptake is reported as 51%.

As to `O=C(C1=NOC2(CCN(S(=O)(=O)c3ccc(Cl)s3)CC2)C1)N1CCN(c2ccccc2)CC1` [Example 4, [8-(5-chloro-thiophene-2-sulphonyl)-1-oxa-2,8-diaza-spiro[4,5]dec-2-en-3-yl]-(4-phenyl-piperazin-1-yl)-methanone], the figures for the inhibition at 10 µM on NA transporter and on 5HT-uptake were 45% and 54%, respectively.

For the molecule `O=C(NC1CCCC1)C1=NOC2(CCN(C(=O)c3ccc([N+](=O)[O-])cc3Cl)CC2)C1` [Example 5, 8-(2-chloro-4-nitro-benzoyl)-1-oxa-2,8-diaza-spiro[4,5]dec-2-ene-3-carboxylic acid cyclopentylamide], the inhibition at 10 µM came to 53% against NA transporter and 59% on 5HT-uptake.

With `Cc1ccc(S(=O)(=O)N2CCC3(CC2)CC(C(=O)NCCc2ccc(Cl)c(Cl)c2)=NO3)cc1` [Example 9], at NA transporter, the “NA-uptake, 10 μM, % inhibition” value is reported as 77%. Moreover, the “5HT-uptake, 10 μM, % inhibition” value on 5HT-uptake turned out to be 75%.

Consider `O=C(C1=NOC2(CCN(S(=O)(=O)c3cccs3)CC2)C1)N1CCN(CCCc2ccccc2)CC1` [Example 14, [4-(3-phenyl-propyl)-piperazin-l-yl]-[8-(thiophene-2-sulphonyl)-1-oxa-2,8-diaza-spiro[4,5]dec-2-en-3-yl]-methanone], for which, on NA transporter, the “NA-uptake, 10 μM, % inhibition” value is given as 70%. Also, the “5HT-uptake, 10 μM, % inhibition” value on 5HT-uptake worked out at 78%.

In the case of `CC1CCCCN1CCCNC(=O)C1=NOC2(CCN(S(=O)(=O)c3cc(Cl)ccc3Cl)CC2)C1` (centres unmarked) [Example 15, 8-(2,5-dichloro-benzenesulphonyl)-1-oxa-2,8-diaza-spiro[4,5]dec-2-ene-3-carboxylic acid[3-(2-methyl-piperidin-1-yl)-propyl]-amide], the “NA-uptake, 10 μM, % inhibition” value at NA transporter is on record as 41%. Moreover, at 5HT-uptake, the “5HT-uptake, 10 μM, % inhibition” value is recorded as 55%.

`Cc1cccc(N2CCN(C(=O)C3=NOC4(CCN(S(=O)(=O)c5cccs5)CC4)C3)CC2C)c1` (stereo not drawn) [Example 31, (3-methyl-4-m-tolyl-piperazin-l-yl)-[8-(thiophene-2-sulphonyl)-1-oxa-2,8-diaza-spiro[4,5]dec-2-en-3-yl]-methanone]: the “NA-uptake, 10 μM, % inhibition” value on NA transporter came to 66%. The “5HT-uptake, 10 μM, % inhibition” value on 5HT-uptake is on record as 69%.

`Cc1ccc(S(=O)(=O)N2CCC3(CC2)CC(C(=O)N2CCN(c4ccc(C)cc4C)CC2)=NO3)cc1` [Example 33, [4-(2,4-dimethyl-phenyl)-piperazin-l-yl]-[8-(toluene-4-sulphonyl)-1-oxa-2,8-diazaspiro[4,5]dec-2-en-3-yl]methanone]: the “NA-uptake, 10 μM, % inhibition” value on NA transporter came out at 42%. Also, the “5HT-uptake, 10 μM, % inhibition” value at 5HT-uptake was 57%.

For `Cc1ccc(F)cc1S(=O)(=O)N1CCC2(CC1)CC(C(=O)NCCN(C)C)=NO2` [Example 37, 8-(5-fluoro-2-methyl-benzenesulphonyl)-1-oxa-2,8-diaza-spiro[4,5]dec-2-ene-3-carboxylic acid (2-dimethylamino-ethyl)-amide], the inhibition at 10 µM at NA transporter was 52%; at 5HT-uptake it was 70%.

For `CC(NC(=O)C1=NOC2(CCN(S(=O)(=O)c3cc(Cl)ccc3Cl)CC2)C1)C(=O)Nc1ccc2ccccc2c1` (centres unmarked) [Example 44, 8-(2,5-dichloro-benzenesulphonyl)-1-oxa-2,8-diaza-spiro[4,5]dec-2-ene-3-carboxylic acid [1-(naphthalen-2-ylcarbamoyl)-ethyl]amide], the inhibition at 10 µM on NA transporter was determined as 48%; against 5HT-uptake, 80%.

`O=C(NC1CCN(Cc2ccc3ccccc3c2)C1)C1=NOC2(CCN(S(=O)(=O)c3ccc(Cl)s3)CC2)C1` (centres unmarked) [Example 50, 8-(5-chloro-thiophene-2-sulphonyl)-1-oxa-2,8-diaza-spiro[4,5]dec-2-ene-3 carboxylic acid (1-naphthalen-2-ylmethyl-pyrrolidin-3-yl)-amide]: the results for the inhibition at 10 µM against NA transporter and against 5HT-uptake were 50% and 57%, respectively.

As for `CCOC(=O)N1CCC(NC(=O)C2=NOC3(CCN(C(=O)C4CC4c4ccccc4)CC3)C2)CC1` (centres unmarked) [Example 55, 4-{[8-(2-phenyl-cyclopropanecarbonyl)-1-oxa-2,8-diaza-spiro[4,5]dec-2-ene-3-carbonyl]-amino}-piperidine-1-carboxylic acid ethyl ester], the inhibition at 10 µM against NA transporter came out at 50%; on 5HT-uptake, 65%.

`COc1cccc(CN2CCC(NC(=O)C3=NOC4(CCN(S(=O)(=O)c5cc(Cl)ccc5Cl)CC4)C3)C2)c1` (centres unmarked) [Example 64]: the “NA-uptake, 10 μM, % inhibition” value on NA transporter was determined as 61%. The “5HT-uptake, 10 μM, % inhibition” value at 5HT-uptake is reported as 61%.

With `CN(C)S(=O)(=O)N1CCC2(CC1)CC(C(=O)N1CCN(Cc3ccc4ccccc4c3)CC1)=NO2` [Example 65, 3-(4-naphthalen-2-ylmethyl-piperazine-1-carbonyl)-1-oxa-2,8-diaza-spiro[4,5]dec-2-ene-8-sulphonic acid dimethylamide], the figures for the inhibition at 10 µM on NA transporter and against 5HT-uptake were 63% and 81%, respectively.

With `Cc1ccc(S(=O)(=O)N2CCC3(CC2)CC(C(=O)NC2CCCC2OCc2ccccc2)=NO3)cc1` (centres unmarked) [Example 67, 8-(toluene-4-sulphonyl)-1-oxa-2,8-diaza-spiro[4,5]dec-2-ene-3-carboxylic acid (2-benzyloxy-cyclopentyl)-amide], on NA transporter (10 µM), the “NA-uptake, 10 μM, % inhibition” value was found to be 59%. Also, the inhibition at 10 µM on 5HT-uptake was 58%.

For the molecule `O=C(C1=NOC2(CCN(S(=O)(=O)Cc3ccccc3)CC2)C1)N1CCN(CCCc2ccccc2)CC1` [Example 69], the “NA-uptake, 10 μM, % inhibition” value on NA transporter was 56%. Further, on 5HT-uptake, the “5HT-uptake, 10 μM, % inhibition” value is reported as 63%.

For `Cc1ccc(S(=O)(=O)N2CCC3(CC2)CC(C(=O)NC2CCCC2OCc2ccccc2)=NO3)cc1` (centres unmarked) [Example 73, 8-(toluene-4-sulphonyl)-1-oxa-2,8-diaza-spiro[4,5]dec-2-ene-3-carboxylic acid (2-benzyloxy-cyclopentyl)-amide], the “NA-uptake, 10 μM, % inhibition” value at NA transporter (10 µM) was 93%. Further, the “5HT-uptake, 10 μM, % inhibition” value on 5HT-uptake (10 µM) is given as 46%.

Take `CC(NC(=O)C1=NOC2(CCN(S(=O)(=O)c3cccs3)CC2)C1)c1cccc2c1OCCO2` (centres unmarked) [Example 84, 8-(thiophene-2-sulphonyl)-1-oxa-2,8-diaza-spiro[4,5]dec-2-ene-3-carboxylic acid [1-(2,3-dihydro-benzo[1,4]dioxin-5-yl)-ethyl]-amide]: the inhibition at 10 µM was determined as 67% against NA transporter and 68% at 5HT-uptake.

As to `CN(Cc1cccnc1)C(=O)C1=NOC2(CCN(S(=O)(=O)c3cccc(C(F)(F)F)c3)CC2)C1` [Example 101, 8-(3-trifluoromethyl-benzenesulphonyl)-1-oxa-2,8-diaza-spiro[4,5]dec-2-ene-3 carboxylic acid methyl-pyridin-3-ylmethyl-amide], the inhibition at 10 µM against NA transporter is 43%; against 5HT-uptake, 46%.

Consider `COc1ccc(S(=O)(=O)N2CCC3(CC2)CC(C(=O)NCCc2ccccc2F)=NO3)cc1` [Example 104], for which, on NA transporter, the “NA-uptake, 10 μM, % inhibition” value is 49%. Besides, the “5HT-uptake, 10 μM, % inhibition” value on 5HT-uptake was determined as 41%.

Consider `Cc1ccc(CNC(=O)C2=NOC3(CCN(C(=O)c4ccc(Br)cc4)CC3)C2)o1` [Example 109, 8-(4-bromo-benzoyl)-1-oxa-2,8-diaza-spiro[4,5]dec-2-ene-3-carboxylic acid (5-methyl-furan-2-ylmethyl)-amide], for which the figures for the inhibition at 10 µM against NA transporter and at 5HT-uptake were 40% and 56%, respectively.

`Cc1cc(C(=O)N2CCC3(CC2)CC(C(=O)NCc2ccncc2)=NO3)ccc1Br` [Example 130, 8-(4-bromo-3-methyl-benzoyl)-1-oxa-2,8-diaza-spiro[4,5]dec-2-ene-3-carboxylic acid (pyridin-4-ylmethyl)-amide]: the inhibition at 10 µM against NA transporter stood at 61%; against 5HT-uptake, 64%.

On to `CN(C)S(=O)(=O)N1CCC2(CC1)CC(C(=O)N1CCN(C3CCCCCC3)CC1)=NO2` [Example 144, 3-(4-cycloheptyl-piperazine-1-carbonyl)-1-oxa-2,8-diaza-spiro[4,5]dec-2-ene-8 sulphonic acid dimethylamide], for which the inhibition at 10 µM at NA transporter was found to be 56%; against 5HT-uptake, 41%.

As to `Cc1ccc(F)cc1S(=O)(=O)N1CCC2(CC1)CC(C(=O)NCc1cccs1)=NO2` [Example 150, 8-(5-fluoro-2-methyl-benzenesulphonyl)-1-oxa-2,8-diaza-spiro[4,5]dec-2-ene-3-carboxylic acid (thiophen-2-ylmethyl)-amide], the values for the inhibition at 10 µM against NA transporter and against 5HT-uptake were 48% and 70%, respectively.

On to `CCCCCC(=O)N1CCC2(CC1)CC(C(=O)NCC1CC1)=NO2` [Example 158, 8-hexanoyl-1-oxa-2,8-diaza-spiro[4,5]dec-2-ene-3-carboxylic acid cyclopropylmethyl-amide], for which, on 5HT-uptake, the inhibition at 10 µM is 42%.

In the case of `Cc1ccc(C(=O)N2CCC3(CC2)CC(C(=O)NCC2CC2)=NO3)c(F)c1F` [Example 159, 8-(2,3-difluoro-4-methyl-benzoyl)-1-oxa-2,8-diaza-spiro[4,5]dec-2-ene-3-carboxylic acid cyclopropylmethyl-amide], on 5HT-uptake, the inhibition at 10 µM came out at 40%.

For `COc1ccc(OC)c(CN(Cc2ccco2)C(=O)C2=NOC3(CCN(S(=O)(=O)c4ccc(F)cc4)CC3)C2)c1` [Example 160], the “5HT-uptake, 10 μM, % inhibition” value on 5HT-uptake is 50%.

Regarding `CCSCCNC(=O)C1=NOC2(CCN(S(=O)(=O)N(C)C)CC2)C1` [Example 161], at 5HT-uptake, the “5HT-uptake, 10 μM, % inhibition” value is 44%.

Consider `COc1cccc(CNC(=O)C2=NOC3(CCN(S(=O)(=O)c4ccc(OC(F)(F)F)cc4)CC3)C2)c1` [Example 162, 8-(4-trifluoromethoxy-benzenesulphonyl)-1-oxa-2,8-diaza-spiro[4,5]dec-2-ene-3-carboxylic acid 3-methoxy-benzylamide], for which the inhibition at 10 µM against 5HT-uptake was determined as 40%.
